One assay deals with Scots pine roots. Put plainly: Evaluation of mycorrhiza of Scots pine roots (chitin content). The following applies: fertilization with arginine. The class given is in vivo.
The next assay concerns Arabidposis thaliana. Put plainly: Growth and allocation of biomass as affected by nitrogen form in Arabidopsis. The class given is in vivo. The following applies: sterile culture 21 days, total nitrogen 6 mM.

Consider `N=C(N)NCCC[C@H](N)C(=O)O` [L-Arginine], for which, in the assay with Scots pine roots, the “chitin content of roots versus reference (in words)” value is on record as “substantially higher content of chitin in roots”.
In the assay on Arabidposis thaliana, `O=[N+]([O-])O` [nitrate] showed a Root fraction of 0.12 and a Total biomass of 4.63.

The values are drawn from patent publication US9481610B2, “Use of a fertilizer containing L-amino acid for improving root growth and growth of mycorrhiza” (SweTree Technologies AB, priority 2007, dated 2016).
